Data on seven compounds can be found in PubChem BioAssay AID624129 (Sanford-Burnham Center for Chemical Genomics, 2012).

Active and inactive are the calls of the source. No rule for the calls is given here. Where only a bound is given, the exact number is not on record here.

Holding throughout (assay): CXCR6 receptor antagonists, dose response, cell-based, beta-arrestin, DiscoveRx, APJ panel, uHTS hits (AID 624129)
Assay [1] deals with Apelin receptor (Homo sapiens) (UniProt P35414). The settings on record: CXCR6 beta-arrestin (DiscoveRx) antagonist cell assay, APJ.
In assay [2] the target is Beta-galactosidase (Escherichia coli) (UniProt Q8VNN2). The following applies: CXCR6 beta-arrestin (DiscoveRx) antagonist cell assay, b-galactosidase.
Sequence of Beta-galactosidase (Escherichia coli) (Q8VNN2 whole entry, looked up): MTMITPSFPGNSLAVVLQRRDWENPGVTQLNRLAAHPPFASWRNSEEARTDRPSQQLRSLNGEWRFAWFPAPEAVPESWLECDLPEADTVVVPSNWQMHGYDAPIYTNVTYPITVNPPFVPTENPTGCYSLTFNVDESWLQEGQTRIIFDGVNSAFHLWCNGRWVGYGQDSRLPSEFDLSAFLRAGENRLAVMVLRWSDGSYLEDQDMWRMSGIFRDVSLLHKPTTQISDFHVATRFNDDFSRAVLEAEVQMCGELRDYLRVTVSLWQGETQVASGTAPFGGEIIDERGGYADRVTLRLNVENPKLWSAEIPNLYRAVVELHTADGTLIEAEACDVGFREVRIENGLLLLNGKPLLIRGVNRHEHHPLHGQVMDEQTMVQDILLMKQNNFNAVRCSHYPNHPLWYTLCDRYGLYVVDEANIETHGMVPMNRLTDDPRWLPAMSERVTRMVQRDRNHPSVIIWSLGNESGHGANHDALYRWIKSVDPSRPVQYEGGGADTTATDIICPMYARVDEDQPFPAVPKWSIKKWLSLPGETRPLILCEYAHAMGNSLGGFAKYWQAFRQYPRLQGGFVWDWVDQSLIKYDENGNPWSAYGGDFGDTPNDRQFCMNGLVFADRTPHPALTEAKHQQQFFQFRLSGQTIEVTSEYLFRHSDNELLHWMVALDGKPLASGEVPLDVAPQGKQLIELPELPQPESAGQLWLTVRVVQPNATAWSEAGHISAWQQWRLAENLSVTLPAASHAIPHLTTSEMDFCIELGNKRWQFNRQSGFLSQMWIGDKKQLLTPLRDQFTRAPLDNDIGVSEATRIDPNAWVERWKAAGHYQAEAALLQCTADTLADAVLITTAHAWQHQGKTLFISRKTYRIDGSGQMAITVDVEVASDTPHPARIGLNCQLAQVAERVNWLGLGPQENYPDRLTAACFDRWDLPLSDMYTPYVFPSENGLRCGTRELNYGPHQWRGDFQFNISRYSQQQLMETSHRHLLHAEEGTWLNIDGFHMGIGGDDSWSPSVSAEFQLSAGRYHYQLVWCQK
For assay [3], the target named is C-C chemokine receptor type 6 (Homo sapiens) (UniProt P51684). The following applies: CXCR6 beta-arrestin (DiscoveRx) antagonist cell assay.
Assay [4] addresses C-X-C chemokine receptor type 6 (Homo sapiens) (UniProt O00574). The settings on record: CXCR6 beta-arrestin (DiscoveRx) antagonist cell assay; for inhibition: CXCR6, run 1, dose range 2, at 80 µM (top of the series).
[5] abbreviates: dose range 1, mean IC50 across replicates.
Setting [6] is: CCR6, dose range 1, mean IC50 across replicates.
The mark [7] stands for this setting: CXCR6, dose range 1, mean IC50 across replicates.

Sequence of C-X-C chemokine receptor type 6 (Homo sapiens) (O00574 whole entry, looked up): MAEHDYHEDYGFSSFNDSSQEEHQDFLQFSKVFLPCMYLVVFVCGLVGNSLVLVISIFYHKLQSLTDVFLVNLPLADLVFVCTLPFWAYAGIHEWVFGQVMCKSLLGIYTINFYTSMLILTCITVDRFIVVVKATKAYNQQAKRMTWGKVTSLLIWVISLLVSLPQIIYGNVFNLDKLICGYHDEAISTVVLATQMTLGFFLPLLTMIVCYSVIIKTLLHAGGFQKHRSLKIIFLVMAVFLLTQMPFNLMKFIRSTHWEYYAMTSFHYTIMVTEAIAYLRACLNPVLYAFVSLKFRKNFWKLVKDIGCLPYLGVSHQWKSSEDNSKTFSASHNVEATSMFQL

On to `CC(=O)OCCCNc1cc(Sc2ccc(Cl)cc2)c2nonc2c1[N+](=O)[O-]`, for which the IC50 (usually the concentration needed to halve the response being measured) in assay [1] (dose range 1) was 5.08 µM; in assay [1] (setting [5]) it was 4.65 µM; in assay [1] (run 2, dose range 1) it was 4.27 µM; in assay [1] (run 3, dose range 1) it was 4.6 µM; in assay [2] (dose range 1), 39.8 µM; in assay [2] (setting [5]), 39.8 µM. Further, the IC50 in assay [3] (CCR6, dose range 1) was 1.97 µM; in assay [3] (setting [6]), 2.12 µM; in assay [3] (CCR6, run 2, dose range 1), 2.27 µM; in assay [4] (CXCR6, dose range 1) it was 3.22 µM; in assay [4] (setting [7]), 3.05 µM; in assay [4] (CXCR6, run 2, dose range 1), 2.88 µM. Further, the inhibition (usually the drop in the measured response relative to a control, in per cent) in assay [4] came out at 145%.

As to `CC1(C)CC(=O)C(C=Nc2ccc(C(=O)c3ccccc3)cc2N=CC2=C(O)CC(C)(C)CC2=O)=C(O)C1`, the IC50 entry in assay [1] (dose range 1) is “inactive”; in assay [4] (CXCR6, dose range 1) it was “inactive”. Besides, the IC50 is 60 µM in assay [1] (setting [5]); 62.7 µM in assay [1] (run 2, dose range 1); 75.9 µM in assay [1] (run 3, dose range 1); > 80 µM (inactive) in assay [2] (dose range 1); above 80 µM in assay [2] (setting [5]); 3.9 µM in assay [3] (CCR6, dose range 1). In addition, the IC50 in assay [3] (setting [6]) worked out at 5.09 µM; in assay [3] (CCR6, run 2, dose range 1), 6.27 µM; in assay [4] (setting [7]), 11.2 µM; in assay [4] (CXCR6, run 1, dose range 2) it was 0.963 µM; in assay [4] (CXCR6, run 2, dose range 1), 36.3 µM; in assay [4] (CXCR6, run 2, dose range 2) it was 2.7 µM.

Regarding `CCC(=O)OCOc1ccc(/C=C2/CCC(CN(C)C)C2=O)cc1` (stereo unspecified), the IC50 in assay [1] (dose range 1) is 17.2 µM; in assay [1] (setting [5]), 16.8 µM; in assay [1] (run 2, dose range 1), 15.2 µM; in assay [1] (run 3, dose range 1), 17.9 µM; in assay [2] (dose range 1), > 80 µM (inactive); in assay [2] (setting [5]), above 80 µM. Besides, the IC50 in assay [3] (CCR6, dose range 1) is 10.3 µM; in assay [3] (setting [6]) it was 11.1 µM; in assay [3] (CCR6, run 2, dose range 1) it was 11.9 µM; in assay [4] (setting [7]) it was 12.6 µM; in assay [4] (CXCR6, run 2, dose range 1), 10.2 µM. Besides, the IC50 entry in assay [4] (CXCR6, dose range 1) was “inactive”. In assay [4], the inhibition was 124%.

Consider `Cc1ccc2c(C)ccc(O)c2n1`, for which the IC50 in assay [1] (dose range 1) is 5.26 µM; in assay [1] (setting [5]) it was 5.92 µM; in assay [1] (run 2, dose range 1), 6.22 µM; in assay [1] (run 3, dose range 1), 6.29 µM; in assay [2] (dose range 1), > 80 µM (inactive); in assay [2] (setting [5]), above 80 µM. The IC50 in assay [3] (CCR6, dose range 1) is 4.94 µM; in assay [3] (setting [6]) it was 5.41 µM; in assay [3] (CCR6, run 2, dose range 1), 5.87 µM; in assay [4] (CXCR6, dose range 1) it was 4.91 µM; in assay [4] (setting [7]) it was 5.07 µM; in assay [4] (CXCR6, run 1, dose range 2) it was 4.36 µM. Further, the IC50 in assay [4] (CXCR6, run 2, dose range 1) is 5.82 µM; in assay [4] (CXCR6, run 2, dose range 2) it was 5.2 µM.

As for `Cc1ccsc1/C=C/c1ccc2cccc(O)c2n1`, the IC50 in assay [1] (dose range 1) is 6.75 µM; in assay [1] (setting [5]), 7.71 µM; in assay [1] (run 2, dose range 1), 9.69 µM; in assay [1] (run 3, dose range 1) it was 6.7 µM; in assay [2] (dose range 1), > 80 µM (inactive); in assay [2] (setting [5]), above 80 µM. Also, the IC50 in assay [3] (CCR6, dose range 1) was 5.29 µM; in assay [3] (setting [6]), 6.51 µM; in assay [3] (CCR6, run 2, dose range 1), 7.72 µM; in assay [4] (CXCR6, dose range 1) it was 6.32 µM; in assay [4] (setting [7]), 5.47 µM; in assay [4] (CXCR6, run 1, dose range 2), 3.12 µM. For the same compound, the half-maximal inhibitory concentration (IC50) was determined as 8.63 µM in assay [4] (CXCR6, run 2, dose range 1) and 3.82 µM in assay [4] (CXCR6, run 2, dose range 2).

Take `CCOc1ccc(N(CC(=O)N/N=C/c2ccccn2)S(=O)(=O)c2ccc(Cl)cc2)cc1`: the IC50 in assay [1] (dose range 1) was 14.4 µM; in assay [1] (setting [5]), 14.2 µM; in assay [1] (run 2, dose range 1) it was above 80 µM; in assay [1] (run 3, dose range 1), 13.9 µM; in assay [2] (dose range 1) it was > 80 µM (inactive); in assay [2] (setting [5]) it was above 80 µM. The IC50 is 11.4 µM in assay [3] (CCR6, dose range 1); 12.7 µM in assay [3] (setting [6]); 13.9 µM in assay [3] (CCR6, run 2, dose range 1); 27.1 µM in assay [4] (setting [7]); 10.4 µM in assay [4] (CXCR6, run 1, dose range 2); 61.1 µM in assay [4] (CXCR6, run 2, dose range 1). Moreover, in assay [4] (CXCR6, run 2, dose range 2), the IC50 was determined as 11.9 µM. Besides, the IC50 result in assay [4] (CXCR6, dose range 1) is “inactive”.

Regarding `O=C1C(=C(c2ccccc2)N2CCOCC2)Cc2ccccc21`, the IC50 in assay [1] (dose range 1) was 15.3 µM; in assay [1] (setting [5]), 13.2 µM; in assay [1] (run 2, dose range 1) it was 11.8 µM; in assay [1] (run 3, dose range 1) it was 12.5 µM; in assay [2] (dose range 1), > 80 µM (inactive); in assay [2] (setting [5]) it was above 80 µM. The IC50 in assay [3] (CCR6, dose range 1) was 8.91 µM; in assay [3] (setting [6]), 8.89 µM; in assay [3] (CCR6, run 2, dose range 1), 8.87 µM; in assay [4] (CXCR6, dose range 1) it was 8.74 µM; in assay [4] (setting [7]) it was 9.51 µM; in assay [4] (CXCR6, run 1, dose range 2), 9.93 µM. The IC50 was 10.3 µM in assay [4] (CXCR6, run 2, dose range 1) and 9.08 µM in assay [4] (CXCR6, run 2, dose range 2).
